In patent publication US8173689B2 (Novartis AG, priority 2006, dated 2012):

Legend:
[1] = test system: MNFS60 (murine AML cells); experiment: Cell viability assay in MCSF dependent MNFS60 cells (Cell Titer Glo); format: cell-based; details: Mus musculus, tested at about 1 μM; compounds of Table 3; read-out: M-NFS-60 CP percent inhibition
How it was run: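 Luminescent ATP signal (CellTiter-Glo) after 72 hrs of compound exposure served as the viability measure. Growth was supported by 10 ng/ml MCSF (final), and EC50 values come from fitted triplicate data.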

kinase domain of cKIT = molecular target: T1, kinase domain of cKIT (Homo sapiens, UniProt P10721); experiment: Inhibition of cKIT kinase signaling in an in vitro biochemical assay (alphascreen); details: tested at about 1 μM; compounds of Table 3; read-out: cKit percent inhibition
T1 construct: The kinase domain of cKIT was assayed in 50 mM Hepes; purchased Upstate 14-559
T1 sequence (P10721 589-937 limits assumed): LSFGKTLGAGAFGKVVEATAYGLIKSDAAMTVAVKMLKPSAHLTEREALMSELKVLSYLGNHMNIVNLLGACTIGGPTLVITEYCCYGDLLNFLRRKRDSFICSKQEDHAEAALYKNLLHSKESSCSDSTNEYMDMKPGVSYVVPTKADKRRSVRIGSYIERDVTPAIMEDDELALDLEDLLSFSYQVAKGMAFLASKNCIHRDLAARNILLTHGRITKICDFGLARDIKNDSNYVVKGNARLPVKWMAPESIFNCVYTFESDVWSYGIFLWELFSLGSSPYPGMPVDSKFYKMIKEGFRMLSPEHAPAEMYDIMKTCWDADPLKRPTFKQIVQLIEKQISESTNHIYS

kinase domain of PDGFRβ = molecular target: T2, kinase domain of PDGFRβ (Homo sapiens, UniProt P09619); experiment: Inhibition of PDGFRb kinase signaling in an in vitro biochemical assay (alphascreen); details: tested at about 1 μM; compounds of Table 3; read-out: PDGFRβ percent inhibition
T2 construct: The kinase domain of PDGFRβ was assayed in 50 mM Hepes; purchased Invitrogen P3082
T2 sequence (P09619 600-962 limits assumed): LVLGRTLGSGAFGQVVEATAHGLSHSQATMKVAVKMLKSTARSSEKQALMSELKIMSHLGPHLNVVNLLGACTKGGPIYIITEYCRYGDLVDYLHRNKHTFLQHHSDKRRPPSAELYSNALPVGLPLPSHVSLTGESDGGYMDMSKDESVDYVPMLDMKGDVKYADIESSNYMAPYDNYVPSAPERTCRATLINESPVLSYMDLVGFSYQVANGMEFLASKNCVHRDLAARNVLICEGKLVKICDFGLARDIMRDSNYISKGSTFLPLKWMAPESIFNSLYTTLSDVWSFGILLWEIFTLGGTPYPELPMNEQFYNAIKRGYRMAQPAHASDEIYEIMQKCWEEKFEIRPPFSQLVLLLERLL

[2] = molecular target: T3, cytoplasmic domain of the human CSF-1R (Homo sapiens, UniProt P07333); experiment: In vitro kinase assay for colony stimulating factor-1 receptor (AlphaScreen); format: biochemical; details: tested at about 1 μM; compounds of Table 3; read-out: CSF-1R percent inhibition
T3 construct: Recombinant protein corresponding to the cytoplasmic domain of the human CSF-1R; purchased Invitrogen Corporation, Carlsbad, Calif; PV3249
T3 sequence (P07333 539-972 limits assumed): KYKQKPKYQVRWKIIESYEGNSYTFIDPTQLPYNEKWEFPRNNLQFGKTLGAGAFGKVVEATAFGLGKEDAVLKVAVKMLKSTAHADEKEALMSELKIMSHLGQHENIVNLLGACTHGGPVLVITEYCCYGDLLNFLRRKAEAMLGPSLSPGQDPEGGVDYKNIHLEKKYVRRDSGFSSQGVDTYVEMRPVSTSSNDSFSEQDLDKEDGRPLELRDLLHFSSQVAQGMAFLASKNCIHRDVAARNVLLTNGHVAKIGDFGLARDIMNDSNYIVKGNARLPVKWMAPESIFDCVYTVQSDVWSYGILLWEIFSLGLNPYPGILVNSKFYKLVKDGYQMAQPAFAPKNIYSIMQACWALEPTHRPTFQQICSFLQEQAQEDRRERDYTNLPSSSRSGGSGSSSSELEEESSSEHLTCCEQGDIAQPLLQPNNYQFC
How it was run: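 4 nM enzyme, 1 μM ATP; buffer 50 mM Hepes pH 7.5, 5 mM MgCl2, 10 mM MnCl2, 1.0 mM DTT, 0.1% BSA, 0.01% Tween 80. Readout: AlphaScreen, PT66 acceptor/streptavidin donor, overnight.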

inhibition at 1 µM (kinase domain of cKIT) | inhibition at 1 µM (kinase domain of PDGFRβ) | inhibition at 1 µM [2] | Structure (SMILES) | inhibition at 1 µM [1]
98% | 0% | 100% | c1cncc(CNc2nc3ccc(Oc4ccnc5ccccc45)cc3s2)c1 [Example 254, N-(pyridin-3-ylmethyl)-6-(quinolin-4-yloxy)benzo[d]thiazol-2-amine] | 100%
92% | 8% | 100% | c1ccc2c(Oc3ccc4nc(NCCN5CCOCC5)sc4c3)ccnc2c1 [Example 255, N-(2-morpholinoethyl)-6-(quinolin-4-yloxy)benzo[d]thiazol-2-amine] | 69%
100% | 11% | 100% | COc1ccccc1CNc1nc2ccc(Oc3ccnc4ccccc34)cc2s1 [Example 257, N-(2-methoxybenzyl)-6-(quinolin-4-yloxy)benzo[d]thiazol-2-amine] | 100%
25% | 4% | 97% | C[C@H](Nc1nc2ccc(Oc3ccnc(Cl)c3)cc2s1)C1CCCCC1 [Example 264, (S)-6-(2-chloropyridin-4-yloxy)-N-(1-cyclohexylethyl)benzo[d]thiazol-2-amine] | 3%
9% | 12% | 100% | Cn1nccc1-c1cc(Oc2ccc3nc(N[C@@H]4CCCC[C@H]4O)sc3c2)ccn1 [Example 265, (1R,2R)-2-(6-(2-(1-methyl-1H-pyrazol-5-yl)pyridin-4-yloxy)benzo[d]thiazol-2-ylamino)cyclohexanol] | 32%
24% | 7% | 98% | CCc1nc(-c2cc(Oc3ccc4nc(N[C@@H](C)C5CCCCC5)sc4c3)ccn2)[nH]c1CC [Example 272, (S)-N-(1-cyclohexylethyl)-6-(2-(4,5-diethyl-1H-imidazol-2-yl)pyridin-4-yloxy)benzo[d]thiazol-2-amine] | 38%
26% | 5% | 100% | C[C@H](Nc1nc2ccc(Oc3ccnc(-c4ccnn4C)c3)cc2s1)C1CCCCC1 [Example 277, (S)-N-(1-cyclohexylethyl)-6-(2-(1-methyl-1H-pyrazol-5-yl)pyridin-4-yloxy)benzo[d]thiazol-2-amine] | 24%
23% | 7% | 99% | Nc1ncc(-c2cc(Oc3ccc4nc(N[C@@H]5CCCC[C@H]5O)sc4c3)ccn2)cc1C(F)(F)F [Example 282, (1R,2R)-2-(6-(6'-amino-5'-(trifluoromethyl)-2,3'-bipyridin-4-yloxy)benzo[d]thiazol-2-ylamino)cyclohexanol] | 22%
38% | 20% | 99% | Cc1nn(C)c(C)c1-c1cc(Oc2ccc3nc(N[C@@H]4CCCC[C@H]4O)sc3c2)ccn1 [Example 283, (1R,2R)-2-(6-(2-(1,3,5-trimethyl-1H-pyrazol-4-yl)pyridin-4-yloxy)benzo[d]thiazol-2-ylamino)cyclohexanol] | 0%
33% | 8% | 99% | O[C@@H]1CCCC[C@H]1Nc1nc2ccc(Oc3ccnc(-c4cncnc4)c3)cc2s1 [Example 285, (1R,2R)-2-(6-(2-(pyrimidin-5-yl)pyridin-4-yloxy)benzo[d]thiazol-2-ylamino)cyclohexanol] | 0%
57% | 20% | 100% | N#Cc1ccc(-c2cc(Oc3ccc4nc(N[C@@H]5CCCC[C@H]5O)sc4c3)ccn2)cn1 [Example 287, 4-(2-((1R,2R)-2-hydroxycyclohexylamino)benzo[d]thiazol-6-yloxy)-2,3'-bipyridine-6'-carbonitrile] | 35%
